Results on one compound are retold here after publication PMC12518693, “Potent Fluorescent Probe for Target‐Engagement Studies of Allosteric Pyruvate Kinase Modulators” (Angewandte Chemie (International Ed. in English), 2025).

Series [1] addresses T1, PKL (Homo sapiens, UniProt P30613). Put plainly: Fluorescence indication titration of tracer IV. The series is classed as binding. Also noted: co-crystallisation of full-length PKL (including the B-domain); 8xHis (TEV-cleavable) (N, cleaved yes); made in house; host or cells: E. coli T7 Express (NEB), pExp-NHis plasmid. The protocol:
The binding kinetics of IV were further validated with fluorescence titration experiments conducted with recombinant PKL. As previously reported, SBD‐tagged PKL ligands fluorescence upon binding to the allosteric pocket,^[ [43] ^] enabling K D determination by saturation binding. […] Association kinetics were then measured by adding tracer IV to PKL and monitoring fluorescence over time. Data were fit using an exponential association model (Equation S2),^[ [49] ^] and k on was derived from the reciprocal analysis of recorded k obs values. The k off was subsequently calculated (Equation S3).^[ [49] ^] The fluorescent binding experiments were consistent with SPR results, confirming a mid‐nanomolar K D of IV.
Titrations of tracer IV were performed in the presence and absence of 10 µM FBP. […] PKL was prepared as a 2x working solution at a constant concentration used throughout the titration. Equal volumes (10 µL) of 2x tracer and 2x PKL solutions were mixed (1:1) in 384-well microplates (Corning Black PS, 3820). For each experiment, three 12-point triplicate series were prepared containing either: (1) tracer IV and buffer (no PKL), (2) tracer IV and PKL (0.1 µM), (3) tracer IV and PKL (0.1 µM) and mitapivat (10 µM, competitor control). […] Titration data were analyzed in Origin(Pro) 2023^[8] and fitted to the Hill equation to determine EC₅₀ values.

The next series deals with PKLNluc and PKLwt. Kind of series: Native PAGE in-gel fluorescence, PKLNluc and PKLwt. The format is binding, human. The note with it: IV 2.5 or 10 µM. The protocol:
(§1) To study the interaction of IV with PKLNluc and its oligomers, native PAGE was performed (Figure 4). Recombinant PKLNluc was incubated for 2 h with IV (0.15–10 µM) or DMSO and loaded onto gels. […] Colloidal blue staining and western blotting with anti‐PKL antibodies confirmed the predominance and identity of the bands (Figure S11a,d). […] PKM2 and PKL exist in equilibrium between oligomeric states, with PKM2 mainly dimeric when unbound.^[ [18] ^] As oligomerization regulates PK function,^[ [11], [54] ^] PKLNluc oligomerization was compared to PKLwt and PKM2 (Figure 4b,c). […] Colloidal blue and anti‐PKM2 blots confirmed PKM2 was mostly monomeric, explaining the lack of binding (Figure S11).
Recombinant PKLNLuc (4 x 950 ng) was incubated for 1 hour at ambient temperature with different concentrations of compound IV in a total volume of 60 µL Tris-HCl buffer pH 7.4 (50 mM Tris, 100 mM KCl, 10 mM MgCl2, 0.05% Tween 20). PKM2 and PKL recombinants (2 x 950 ng) were also incubated for 1 hour at ambient temperature with different concentrations of the compound IV (0, 2.5 and 10 µM). […]
(§2) A ChemiDoc imager (Bio-Rad, Alexa 488 filter) was used for fluorescence detection of compound IV bound to the proteins. […] The images of the in-gel fluorescence and luminescence detection were superimposed. […]

The target of the next series is PKM2 (Homo sapiens, UniProt P14618). Kind of series: Native PAGE in-gel fluorescence, PKM2. The format is binding. Set-up: made in house. The protocol:
as §1
Given that FBP levels vary widely in cells,^[ [55], [56], [57] ^] and that it binds PKL with nanomolar affinity, ^[ [58] ^] IV binding to PKLwt was tested with and without FBP.
Recombinant PKLNLuc (4 x 950 ng) was incubated for 1 hour at ambient temperature with different concentrations of compound IV in a total volume of 60 µL Tris-HCl buffer pH 7.4 (50 mM Tris, 100 mM KCl, 10 mM MgCl2, 0.05% Tween 20). […]
as §2

The target of series [2] is T1, PKL. Put plainly: Surface plasmon resonance, PKL. In general terms: Surface plasmon resonance follows binding to a sensor surface in real time, without labels.
Experimental: The surface was washed with 10 mM NaOH, 1M NaCl followed by immobilization of protein before subsequent deactivation by 1 M ethanolamine. Immobilization levels were typically 12000-16000 RU. The reference spot was treated as described, omitting the injection of PKL. Compound concentration series was injected over the immobilized protein in increasing concentrations using multi cycle (MCK) or single cycle kinetics (SCK) in running buffer (10 mM HEPES, 150 mM NaCl, 0.05% Tween20, 0.3% DMSO, pH 7.4). A 1:1 Langmuir interaction model is fitted to the experimental traces, enabling determination of kon, koff and Kd.
A further series has as its system HEK293 cells. Kind of series: Photostability in HEK293 cells under continuous 488 nm irradiation. The series is classed as cell-based. The note with it: HEK293, 1 µM, 2 h, continuous 488 nm scanning 10 min. The protocol: Photostability of tracer IV was subsequently evaluated by treating HEK293 cells with the tracer (1 µM) for 2 h, followed by continuous scanning using 488 nm laser excitation for 10 min.
Figure S7. Photobleaching curve of compound IV (1 µM) in HEK293 cells under continuous laser irradiation. HEK293 cells were exposed to continuous excitation at 488 nm for 10 minutes using the same imaging settings as applied throughout this study. Integrated fluorescence intensity was recorded over time from an identical region of interest (ROI) across the time-lapse images to assess photostability.

Several values for one entry are separate records, joined by “and”; a condition that tells them apart may be missing. Identical values can stand only once.

T1 sequence (P30613 1-543 isoform P30613-2): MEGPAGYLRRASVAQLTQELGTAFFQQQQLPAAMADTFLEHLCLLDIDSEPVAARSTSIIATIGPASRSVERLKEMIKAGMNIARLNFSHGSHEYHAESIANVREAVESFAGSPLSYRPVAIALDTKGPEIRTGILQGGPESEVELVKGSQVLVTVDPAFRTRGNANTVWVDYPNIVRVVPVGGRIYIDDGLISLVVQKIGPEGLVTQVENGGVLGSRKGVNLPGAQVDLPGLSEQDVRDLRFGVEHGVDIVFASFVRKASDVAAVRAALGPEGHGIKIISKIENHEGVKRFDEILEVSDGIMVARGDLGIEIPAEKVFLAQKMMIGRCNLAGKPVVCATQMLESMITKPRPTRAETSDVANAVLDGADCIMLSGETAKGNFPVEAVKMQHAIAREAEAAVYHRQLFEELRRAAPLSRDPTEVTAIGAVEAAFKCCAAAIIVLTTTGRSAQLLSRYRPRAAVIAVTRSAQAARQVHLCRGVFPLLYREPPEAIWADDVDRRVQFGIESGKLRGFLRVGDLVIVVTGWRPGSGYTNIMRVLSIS
Chain of PKM2 (P14618 whole entry): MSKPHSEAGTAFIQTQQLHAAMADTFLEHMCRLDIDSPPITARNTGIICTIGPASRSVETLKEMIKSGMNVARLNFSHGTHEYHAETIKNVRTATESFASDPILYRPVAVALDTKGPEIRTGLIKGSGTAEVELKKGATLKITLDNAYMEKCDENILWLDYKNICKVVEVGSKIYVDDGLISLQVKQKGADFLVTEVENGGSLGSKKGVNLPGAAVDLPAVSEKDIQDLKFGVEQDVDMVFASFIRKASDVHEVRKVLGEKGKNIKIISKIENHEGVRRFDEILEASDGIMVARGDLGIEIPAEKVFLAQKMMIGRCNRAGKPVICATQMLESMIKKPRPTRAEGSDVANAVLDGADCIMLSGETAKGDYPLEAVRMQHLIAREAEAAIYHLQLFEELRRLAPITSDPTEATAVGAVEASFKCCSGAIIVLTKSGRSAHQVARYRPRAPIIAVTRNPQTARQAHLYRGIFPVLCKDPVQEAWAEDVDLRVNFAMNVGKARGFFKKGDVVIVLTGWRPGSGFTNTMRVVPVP

For `CN(C)c1ccc(S(=O)(=O)c2ccc3c(=O)n(Cc4cc[nH]n4)ncc3c2)c2nonc12` [Compound IV, 2-((1H-Pyrazol-3-yl)methyl)-6-((7-(dimethylamino)benzo[c][1,2,5]oxadiazol-4-yl)sulfonyl)phthalazin-1(2H)-one], the “effect of FBP on binding affinity” value at PKL [1] (PKLwt, with and without 10 µM FBP) was “no significant change in binding affinity”. Besides, the koff is 0.00865 s⁻¹ at PKL [1] (calculated from K D and k on (Equation S3), read-out: k off fluorescence titration (PKL) (converted)); 0.00617 s⁻¹ on PKL [2] (read-out: k off SPR (PKL)). For the same compound, the kon on PKL [1] (from k obs values) was 206000 M⁻¹ s⁻¹; at PKL [2] (read-out: k on SPR (PKL)) it was 168000 M⁻¹ s⁻¹. The Kd at PKL [1] (recombinant PKL, Hill fit, read-out: K D fluorescence titration (PKL)) was 42 ± 7 nM; at PKL [2] (K D SPR (PKL), 20 °C, mean ± SE n=3), 37 ± 1 nM; on PKL [2] (KD, independent replicates, single cycle kinetics, 1:1 Langmuir fit, Figure S14), 38.8 nM and 36.9 nM. The “in-gel fluorescence labeling of oligomers” value with PKLNluc and PKLwt was “labeling only of the tetramers”; in the series on PKLNluc and PKLwt (listed as LumiPK) it was “exclusively to the tetrameric form of PKL”. The “in-gel fluorescence labeling of PKM2” value at PKM2 (IV 2.5 or 10 µM with FBP 10 µM, PKM2 tetrameric) is “no fluorescence”; on PKM2 (IV 2.5 or 10 µM, without FBP), “no fluorescence was detected”. Also, the “PKL selectivity over PKM2” value at PKL [2] (SPR K D PKM2 vs PKL) turned out to be 37 fold. The “decrease of fluorescence intensity” value in the series on HEK293 cells is “approximately 6%”.
